Read-outs that look alike come from different tables or passages of the source.
How the values were obtained:
Type in all cases: in vivo
Aedes aegypti mosquito = assay: USDA Petri Dish Method, 3 min exposure to treated glazed tile
Procedure, shortened: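 Resmethrin or clothianidin in acetone, with or without adjuvant, applied to glazed tile and dried overnight; twenty 4-6 day old female mosquitoes exposed 3 minutes, then moved to clean index card. Knockdown scored at intervals over hours; mortality at 24 hours with sucrose provided; at least three replicates.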

[1] = tested on: Cimex lectularius (adults); assay: Efficacy on glazed tiles (acetone solutions or EC formulations), continuous exposure; conditions: for mortality at 10 mg/m2 / mortality at 50 mg/m2: Cimex lectularius, read-out: % KD and Mortality
Description: (§1) Test Insects: Culex quinquefasciatus (adults) (3 minutes exposure time according to USDA Petri Dish Method), Musca domestica (adults), susceptible and resistant strain, Blattella germanica (males), Cimex lectularius (adults) (all: continuous exposure time)
(§2) Application: The EC formulation (diluted with water 1:9) were applied as 0.85 ml solutions onto glazed tiles (15 cm×15 cm)
(§3) Evaluation: Knock down after 15, and 30 minutes, 1, 2, 3, 4, 6 and 24 hours (mortality)
Test Insects: Culex quinquefasciatus (adults) (3 minutes exposure time according to USDA Petri Dish Method), Cimex lectularius (adults), Acheta domesticus (middle nymphs) (both: continuous exposure time)
Application: The active ingredients were applied as 1 ml acetone solutions onto glazed tiles (15 cm×15 cm)
Evaluation: Knock down after 3, 9 (mosquitoes only), 15, and 30 minutes, 1, 2, 3, 4 and 24 hours (mortality)
Test Insects: Culex quinquefasciatus (adults) (3 minutes exposure time according to USDA Petri Dish Method), Cimex lectularius (adults), (continuous exposure time)
Test Insects: Cimex lectularius, Culex quinquefasciatus, Musca domestica (all adults, susceptible strains)
Application: The active ingredients were applied as 1 ml acetone solutions onto glazed tiles (15 cm×15 cm), continuous exposure time

[2] = tested on: Musca domestica, susceptible strain WHO(N); assay: Efficacy of formulations on surfaces (glazed/unglazed tiles), house flies, continuous exposure; conditions: for % KD and Mortality 15′ / % KD and Mortality 30′ / % KD and Mortality 1 h / % KD and Mortality 2 h / % KD and Mortality 3 h / % KD and Mortality 4 h / % KD and Mortality 6 h / % KD and Mortality 24 h: Table 114, EC formulation, continuous exposure
Description: A flat fan nozzle (type SS 8003-E) in a spray cabin was moved automatically over a defined area where the solutions were sprayed very evenly onto the surfaces. The formulation was mixed with water to give a concentration which corresponded to the desired quantity of a.i./m^2. A defined quantity of this solution was sprayed onto the area (nominal 350 liter/ha=0.77 ml per surface).
All surfaces were provided with talcum-coated glass rings (diameter 9.5 cm, height 5.5 cm) one day later.
The test insects were anesthetized with CO2, 20 individuals were placed onto the treated surfaces and the glass ring was covered with wire gauze ring.
Knock down was determined after 15 and 30′, 1, 2, 4 and 6 hours, mortality after 1 day exposure.
Each test consisted of at least one replicate and any additional replicates are noted.
Test Insects: House flies (Musca domestica) of both sexes, susceptible strain WHO(N) and resistant strain Reichswald
Evaluation: Mortality was evaluated cumulatively at different times. […]
as §1, §2, §3
Test Insects: Culex quinquefasciatus (adults, susceptible) (3 minutes exposure time according to USDA Petri Dish Method), Musca domestica (adults, susceptible and resistant), Blattella germanica (males, susceptible) (both: continuous exposure time)
Formulations: Insecticide with or without 10% Compound A (as EC), to be diluted with water (1 part formulation+9 parts water)
Evaluation: Knock down after 3, 9 (mosquitoes only), 15, and 30 minutes, 1, 2, 3, 4 and 24 hours (mortality) […]

[3] = Table 48, fipronil/adjuvant in acetone, glazed tile, 3 min exposure
[4] = 15′, on tiles, insecticide alone (imidacloprid 50 mg/m^2, Bendiocarb 50 mg/m^2, Ethiprole 10 mg/m^2, DTM 1 mg/m^2), no Compound A
[5] = 1 h, on tiles, insecticide alone (imidacloprid 50 mg/m^2, Bendiocarb 50 mg/m^2, Ethiprole 10 mg/m^2, DTM 1 mg/m^2), no Compound A
[6] = 2 h, on tiles, insecticide alone (imidacloprid 50 mg/m^2, Bendiocarb 50 mg/m^2, Ethiprole 10 mg/m^2, DTM 1 mg/m^2), no Compound A
[7] = 3 h, on tiles, insecticide alone (imidacloprid 50 mg/m^2, Bendiocarb 50 mg/m^2, Ethiprole 10 mg/m^2, DTM 1 mg/m^2), no Compound A
[8] = 4 h, on tiles, insecticide alone (imidacloprid 50 mg/m^2, Bendiocarb 50 mg/m^2, Ethiprole 10 mg/m^2, DTM 1 mg/m^2), no Compound A
[9] = 6 h, on tiles, insecticide alone (imidacloprid 50 mg/m^2, Bendiocarb 50 mg/m^2, Ethiprole 10 mg/m^2, DTM 1 mg/m^2), no Compound A
[10] = 24 h, on tiles, insecticide alone (imidacloprid 50 mg/m^2, Bendiocarb 50 mg/m^2, Ethiprole 10 mg/m^2, DTM 1 mg/m^2), no Compound A
[11] = 0.02% = 10 mg Ethiprole/m^2 on glazed tiles
[12] = 0.001% deltamethrin in acetone on glazed tiles, with or without adjuvant
[13] = Table 56, Aedes aegypti, glazed tile, 3 min exposure
[14] = 0.1% = 50 mg Bendiocarb/m^2 on glazed tiles
[15] = 0.1% = 50 mg imidacloprid/m^2 on glazed tiles

N#Cc1nn(-c2c(Cl)cc(C(F)(F)F)cc2Cl)c(N)c1[S+]([O-])C(F)(F)F (stereo not drawn) [Fipronil (.01%)]
Average % Knockdown & Mortality after 15 min (Aedes aegypti mosquito; [3]): 5%
Average % Knockdown & Mortality after 30 min (Aedes aegypti mosquito; [3]): 6%
Average % Knockdown & Mortality after 60 min (Aedes aegypti mosquito; [3]): 19%
Average % Knockdown & Mortality after 4 hr (Aedes aegypti mosquito; [3]): 42%
Average % Knockdown & Mortality after 6 hr (Aedes aegypti mosquito; [3]): 56%
Average % Knockdown & Mortality after 24 hr (Aedes aegypti mosquito; [3]): 72%

CC[S+]([O-])c1c(C#N)nn(-c2c(Cl)cc(C(F)(F)F)cc2Cl)c1N (stereo not drawn) [ethiprole]
mortality at 10 mg/m2 [1, 4]: 0%
mortality at 10 mg/m2 [1, 5]: 0%
mortality at 10 mg/m2 [1, 6]: 10%
mortality at 10 mg/m2 [1, 7]: 10%
mortality at 10 mg/m2 [1, 8]: 10%
mortality at 10 mg/m2 [1, 9]: 70%
mortality at 10 mg/m2 [1, 10]: 100%
mortality rate (peak / increased over time), FIG. 50 (Aedes aegypti mosquito; ethiprole 0.01% AI with or without adjuvant): 15-18%
% KD and Mortality 15′ [2, 11]: 0%
% KD and Mortality 30′ [2, 11]: 0%
% KD and Mortality 1 h [2, 11]: 0%
% KD and Mortality 2 h [2, 11]: 5%
% KD and Mortality 3 h [2, 11]: 15%
% KD and Mortality 4 h [2, 11]: 15%
% KD and Mortality 6 h [2, 11]: 25%
% KD and Mortality 24 h [2, 11]: 95%

CC1(C)[C@H](C(=O)O[C@H](C#N)c2cccc(Oc3ccccc3)c2)[C@@H]1C=C(Br)Br [deltamethrin]
% of the flies killed after 15′ ([2]; 0.001% deltamethrin in acetone on glazed tiles, with or without 1% Compound A + 0.5% Compound B): 2%
% of the flies killed after 30′ [2, 12]: 18%
% of the flies killed after 1 h [2, 12]: 58%
% of the flies killed after 2 h [2, 12]: 80%
% of the flies killed after 3 h [2, 12]: 88%
% of the flies killed after 24 h [2, 12]: 92%

CC[S+]([O-])c1c(C#N)nn(-c2c(Cl)cc(C(F)(F)F)cc2Cl)c1N (stereo not drawn) [Ethiprole (1%)]
Average % Knockdown & Mortality after 4 hr (Aedes aegypti mosquito; [13]): 17%
Average % Knockdown & Mortality after 6 hr (Aedes aegypti mosquito; [13]): 27%
Average % Knockdown & Mortality after 24 hr (Aedes aegypti mosquito; [13]): 46%
Average % Knockdown & Mortality after 2 hr (Aedes aegypti mosquito; Table 56, Aedes aegypti, glazed tile, 3 min exposure, adjuvant = Compound A 1% + Compound B 0.5%, 2 hr): 2%

CNC(=O)Oc1cccc2c1OC(C)(C)O2 [bendiocarb]
% KD and Mortality ([1]; 30′, on tiles, insecticide alone (imidacloprid 50 mg/m^2, Bendiocarb 50 mg/m^2, Ethiprole 10 mg/m^2, DTM 1 mg/m^2), no Compound A): 100%
mortality at 50 mg/m2 ([1]; 1 h): 100%
mortality at 50 mg/m2 ([1]; 2 h): 100%
mortality at 50 mg/m2 ([1]; 3 h): 100%
mortality at 50 mg/m2 ([1]; 4 h): 100%
mortality at 50 mg/m2 ([1]; 6 h): 100%
mortality at 50 mg/m2 ([1]; 24 h): 100%
mortality at 50 mg/m2 [1]: 100%
% KD and Mortality 15′ [2, 14]: 25%
% KD and Mortality 30′ [2, 14]: 65%
% KD and Mortality 1 h [2, 14]: 85%
% KD and Mortality 2 h [2, 14]: 85%
% KD and Mortality 3 h [2, 14]: 85%
% KD and Mortality 4 h [2, 14]: 85%
% KD and Mortality 6 h [2, 14]: 85%
% KD and Mortality 24 h [2, 14]: 95%

O=[N+]([O-])NC1=NCCN1Cc1ccc(Cl)nc1 [imidacloprid]
mortality at 50 mg/m2 [1, 4]: 100%
mortality at 50 mg/m2 [1, 5]: 100%
mortality at 50 mg/m2 [1, 6]: 100%
mortality at 50 mg/m2 [1, 7]: 100%
mortality at 50 mg/m2 [1, 8]: 100%
mortality at 50 mg/m2 [1, 9]: 100%
mortality at 50 mg/m2 [1, 10]: 100%
% KD and Mortality 15′ [2, 15]: 25%
% KD and Mortality 30′ [2, 15]: 55%
% KD and Mortality 1 h [2, 15]: 40%
% KD and Mortality 2 h [2, 15]: 95%
% KD and Mortality 3 h [2, 15]: 95%
% KD and Mortality 4 h [2, 15]: 95%
% KD and Mortality 6 h [2, 15]: 95%
% KD and Mortality 24 h [2, 15]: 100%

N#Cc1nn(-c2c(Cl)cc(C(F)(F)F)cc2Cl)c(N)c1[S+]([O-])C(F)(F)F (stereo not drawn) [Fipronil (.001%)]
Average % Knockdown & Mortality after 15 min (Aedes aegypti mosquito; [3]): 0%
Average % Knockdown & Mortality after 30 min (Aedes aegypti mosquito; [3]): 0%
Average % Knockdown & Mortality after 60 min (Aedes aegypti mosquito; [3]): 0%
Average % Knockdown & Mortality after 4 hr (Aedes aegypti mosquito; [3]): 0%
Average % Knockdown & Mortality after 6 hr (Aedes aegypti mosquito; [3]): 3%
Average % Knockdown & Mortality after 24 hr (Aedes aegypti mosquito; [3]): 3%
